Assays:
[1] = target: Soluble acetylcholine receptor (Aplysia californica, UniProt Q8WSF8, Y55W); test: Binding affinity to salt water mollusc Aplysia californica AChBP Y55W mutant assessed as [3H]acetamiprid binding by radioligand binding assay
[2] = target: Neuronal acetylcholine receptor subunit alpha-4 (Gallus gallus, UniProt P09482+P09484); test: Binding affinity to recombinant Gallus gallus (chicken) alpha4beta2 nicotinic acetylcholine receptor assessed as [3H]NIC binding by radioligand binding assay
Sequence of Neuronal acetylcholine receptor subunit alpha-4 (P09482 whole entry, one chain of several): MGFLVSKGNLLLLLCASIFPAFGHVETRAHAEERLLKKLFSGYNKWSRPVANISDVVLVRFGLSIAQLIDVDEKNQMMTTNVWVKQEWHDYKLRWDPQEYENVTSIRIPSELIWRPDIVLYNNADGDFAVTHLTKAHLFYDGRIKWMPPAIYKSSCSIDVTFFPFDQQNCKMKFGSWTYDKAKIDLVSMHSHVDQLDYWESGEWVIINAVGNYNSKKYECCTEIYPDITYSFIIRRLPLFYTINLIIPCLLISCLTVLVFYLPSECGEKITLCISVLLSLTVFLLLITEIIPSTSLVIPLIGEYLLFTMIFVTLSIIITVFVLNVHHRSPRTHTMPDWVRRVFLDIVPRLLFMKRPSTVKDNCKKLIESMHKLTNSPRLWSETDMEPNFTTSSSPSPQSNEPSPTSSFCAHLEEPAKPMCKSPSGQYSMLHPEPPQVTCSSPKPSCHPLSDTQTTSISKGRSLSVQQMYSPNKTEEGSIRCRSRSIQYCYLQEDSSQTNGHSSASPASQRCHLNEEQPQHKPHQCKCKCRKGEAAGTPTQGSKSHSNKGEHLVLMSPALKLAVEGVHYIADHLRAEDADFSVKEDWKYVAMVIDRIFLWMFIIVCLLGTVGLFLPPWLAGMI

[3] = target: T1, Acetylcholine receptor subunit beta-like 2 (Drosophila melanogaster, UniProt P25162); test: Binding affinity to Drosophila brain nicotinic acetylcholine receptor assessed as [3H]IMI binding by radioligand binding assay
T1 sequence (P25162 whole entry): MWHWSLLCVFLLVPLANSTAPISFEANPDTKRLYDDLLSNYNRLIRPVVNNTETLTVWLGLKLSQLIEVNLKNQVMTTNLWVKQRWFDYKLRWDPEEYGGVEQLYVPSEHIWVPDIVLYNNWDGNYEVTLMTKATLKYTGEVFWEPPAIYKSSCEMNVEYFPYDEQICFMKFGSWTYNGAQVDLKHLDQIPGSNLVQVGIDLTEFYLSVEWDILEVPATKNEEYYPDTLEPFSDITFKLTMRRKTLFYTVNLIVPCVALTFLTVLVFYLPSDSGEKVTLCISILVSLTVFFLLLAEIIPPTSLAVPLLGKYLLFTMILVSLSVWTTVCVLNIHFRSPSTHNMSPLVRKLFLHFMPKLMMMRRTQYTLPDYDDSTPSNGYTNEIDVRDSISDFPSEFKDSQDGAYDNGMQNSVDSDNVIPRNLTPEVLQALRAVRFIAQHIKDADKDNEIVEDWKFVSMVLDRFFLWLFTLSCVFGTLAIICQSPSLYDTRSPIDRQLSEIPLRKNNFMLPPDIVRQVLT

[4] = target: Acetylcholine-binding protein (Lymnaea stagnalis, UniProt P58154); test: Binding affinity to freshwater snail Lymnaea stagnalis AChBP assessed as [3H]EPI binding by radioligand binding assay
Sequence of Acetylcholine-binding protein (P58154 whole entry): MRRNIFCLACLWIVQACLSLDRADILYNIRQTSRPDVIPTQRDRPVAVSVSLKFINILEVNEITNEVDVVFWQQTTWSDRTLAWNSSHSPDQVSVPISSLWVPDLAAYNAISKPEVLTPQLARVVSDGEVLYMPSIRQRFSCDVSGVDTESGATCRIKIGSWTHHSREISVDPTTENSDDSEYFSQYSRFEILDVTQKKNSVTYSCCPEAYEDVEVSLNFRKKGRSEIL

SMILES	Ki [1] [µM]	Ki [2] [µM]	Ki [3] [µM]	Ki [4] [µM]
N#C/N=C1\SCCN1Cc1ccc(Cl)nc1 [THIACLOPRID]	0.0039	0.24	0.0012	
O=[N+]([O-])NC1=NCCN1Cc1ccc(Cl)nc1 [IMIDACLOPRID]	0.019	0.97	0.003	
CN1CCC[C@H]1c1cccnc1 [NICOTINE]	0.03	0.0019	2.7	
Clc1ccc(C2CC3CCC2N3)cn1 (racemic) [EPIBATIDINE]	0.001		0.29	0.0003
O=[N+]([O-])/C=C1\NCCN1Cc1ccc(Cl)nc1	0.0017	0.06	0.00012	
N=C1SCCN1Cc1ccc(Cl)nc1 [DESCYANOTHIACLOPRID]	0.0006	0.0012	0.13	0.016
N=C1NCCN1Cc1ccc(Cl)nc1 [DESNITROIMIDACLOPRID]	0.015	0.0022	1	0.018
C/C(=N\C#N)N(C)Cc1ccc(Cl)nc1	0.032	0.68	0.0072	1.2
